Tests used:
[1] = Rat PK study of P-1496 free base, arginine and lysine complex; type: in vivo, Sprague-Dawley rats; set-up: AUC∞/dose: unit not given here; conditions: for AUC∞/dose / Cmax/dose: Table 10B, rats; for biopharmaceutical properties, comparison in words: rat PK, relative to P-1496 free base
Description: A PK study was carried out in Sprague-Dawley rats on the arginine or lysine complex of propane-1-sulfonic acid {2,4-difluoro-3-[5-(2-methoxy-pyrimidin-5-yl)-1H-pyrrolo[2,3-b]pyridine-3-carbonyl]-phenyl}-amide P-1496 (Murigenics, Berkeley, Calif.), dosing via […], with sampling of approximately 250 μL of blood via jugular veing in Lithium heparin tubes at 30 minutes, 1, 3, 6, 8, 12, 24, 36 and 48 hours. Blood samples were centrifuged at 4° C. for 10 minutes at RCF of 1,000, plasma was stored at […] and shipped frozen for analytical analysis (Integrated Analytical Solutions, Inc., Berkeley, Calif.).
Solid formulations were taken up in PEG400:water at 200 mg/cc for free base, arginine, and lysine complexes, and also at 400 mg/cc for lysine complex and dosed by oral gavage 10 mL/kg to provide the P-1496 doses indicated in Table 10B.

B-Raf = B-Raf (Homo sapiens, UniProt P15056); assay: Kinase activity assay, B-Raf; type: biochemical; conditions: read-out: activity toward kinase B-Raf, IC50
C-Raf = C-Raf (Homo sapiens, UniProt P04049); assay: Kinase activity assay, C-Raf
A-Raf = molecular target: T1, A-Raf (Homo sapiens, UniProt P10398); assay: Kinase activity assay, A-Raf
T1 sequence (P10398 1-606): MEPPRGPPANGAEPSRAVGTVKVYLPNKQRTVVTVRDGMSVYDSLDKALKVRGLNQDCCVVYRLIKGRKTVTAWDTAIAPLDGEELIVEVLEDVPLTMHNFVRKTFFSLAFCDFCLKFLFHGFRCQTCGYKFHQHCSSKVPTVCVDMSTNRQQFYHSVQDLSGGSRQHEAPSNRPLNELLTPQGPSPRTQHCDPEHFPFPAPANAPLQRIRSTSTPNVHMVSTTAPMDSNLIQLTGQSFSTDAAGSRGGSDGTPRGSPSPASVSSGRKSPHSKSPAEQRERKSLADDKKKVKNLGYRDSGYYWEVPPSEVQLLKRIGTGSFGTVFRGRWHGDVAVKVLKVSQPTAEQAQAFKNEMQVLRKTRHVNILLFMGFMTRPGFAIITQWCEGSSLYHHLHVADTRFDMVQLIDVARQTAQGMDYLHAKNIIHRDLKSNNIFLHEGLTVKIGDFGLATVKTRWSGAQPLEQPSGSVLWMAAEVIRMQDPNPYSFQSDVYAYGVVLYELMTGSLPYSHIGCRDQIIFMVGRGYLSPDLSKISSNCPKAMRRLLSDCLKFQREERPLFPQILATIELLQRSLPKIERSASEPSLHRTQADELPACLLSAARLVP

MAP4K4 = MAP4K4 (Homo sapiens, UniProt O95819); assay: Kinase activity assay, MAP4K4
Src = Src (Homo sapiens, UniProt P12931); assay: Kinase activity assay, Src
Kdr = Kdr (Homo sapiens, UniProt P35968); assay: Kinase activity assay, Kdr
PI3Kα = PI3Kα (Homo sapiens, UniProt P42336); assay: Kinase activity assay, PI3Kα
B-Raf V600E = B-Raf V600E (Homo sapiens, UniProt P15056, V600E); assay: Kinase activity assay, B-Raf V600E; type: biochemical; conditions: read-out: activity toward kinase B-Raf V600E, IC50
PI3Kγ = PI3Kγ (Homo sapiens, UniProt P48736); assay: Kinase activity assay, PI3Kγ
Kit = Kit (Homo sapiens, UniProt P10721); assay: Kinase activity assay, Kit
TrkA = TrkA (Homo sapiens, UniProt P04629); assay: Kinase activity assay, TrkA
TEC = molecular target: T2, TEC (Homo sapiens, UniProt P42680); assay: Kinase activity assay, TEC
T2 sequence (P42680 1-631): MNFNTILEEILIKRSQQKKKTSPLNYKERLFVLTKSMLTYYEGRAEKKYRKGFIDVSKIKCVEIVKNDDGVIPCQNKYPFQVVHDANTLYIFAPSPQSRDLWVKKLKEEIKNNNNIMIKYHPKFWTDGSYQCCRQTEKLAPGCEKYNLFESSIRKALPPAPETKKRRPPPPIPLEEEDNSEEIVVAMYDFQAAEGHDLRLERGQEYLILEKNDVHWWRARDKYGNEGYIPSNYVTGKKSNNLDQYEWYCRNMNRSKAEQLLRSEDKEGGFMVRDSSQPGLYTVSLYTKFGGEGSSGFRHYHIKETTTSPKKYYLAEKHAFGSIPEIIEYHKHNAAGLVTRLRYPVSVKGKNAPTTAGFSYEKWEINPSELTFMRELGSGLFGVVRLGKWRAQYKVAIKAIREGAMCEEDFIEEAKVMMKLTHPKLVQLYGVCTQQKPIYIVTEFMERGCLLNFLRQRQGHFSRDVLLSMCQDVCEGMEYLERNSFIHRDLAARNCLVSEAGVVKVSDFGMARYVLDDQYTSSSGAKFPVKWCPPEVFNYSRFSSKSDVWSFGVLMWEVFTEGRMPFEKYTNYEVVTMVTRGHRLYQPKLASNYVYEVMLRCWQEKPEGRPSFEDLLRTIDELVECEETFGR

Flt1 = Flt1 (Homo sapiens, UniProt P17948); assay: Kinase activity assay, Flt1
Fms = Fms (Homo sapiens, UniProt P07333); assay: Kinase activity assay, Fms
Btk = Btk (Homo sapiens, UniProt Q06187); assay: Kinase activity assay, Btk
PI3Kδ = PI3Kδ (Homo sapiens, UniProt O00329); assay: Kinase activity assay, PI3Kδ
[2] = Intrinsic dissolution rate in simulated intestinal fluid (SIF); type: physicochemical; conditions: pellet, 310 nm, versus form 2 polymorph free base
Description: (§1) The intrinsic dissolution rate of a similarly prepared substantially amorphous arginine complex of P-1167 was compared to that of the form 2 polymorph in simulated gastric fluid (SGF) without enzyme and in simulated intestinal fluid (SIF). A pellet of test sample was dissolved in the appropriate fluid, and the UV absorbance as a function of time was measured at 254 nm (SGF) or 310 nm (SIF) and plotted. […] As such, significant improvement of dissolution of the arginine complex is shown, which is likely to be improved further by processing the complex to a completely amorphous form.

[3] = Intrinsic dissolution rate in simulated gastric fluid (SGF) without enzyme; type: physicochemical; conditions: pellet, 254 nm
Description: as §1

[4] = Polymorph stability of P-1167 forms 1 and 2; type: physicochemical; conditions: P-1167 form 1 versus form 2
From the text: Propane-1-sulfonic acid {3-[5-(4-chloro-phenyl)-1H-pyrrolo[2,3-b]pyridine-3-carbonyl]-2,4-difluoro-phenyl}-amide (P-1167) may be prepared according to methods known in the art, for example, using methods described in U.S. patent application Ser. No. 11/473,347 (see also, PCT publication WO2007002433), the disclosure of which is hereby incorporated by reference. Compound P-1167 can exist in polymorphic forms, for example as polymorphic forms 1 or 2, where such polymorphic forms may be isolated as the substantially pure polymorph. The desired polymorphic form may be prepared, for example, by using appropriate crystallization conditions. For example, Form 1 was isolated by recrystallization from acetone/absolute ethanol (e.g. 1:1 to 5:1, preferably 2:1 by volume). […] The substantially pure isolated polymorphic forms were characterized by X-Ray Powder Diffraction (XRPD), differential scanning calorimetry (DSC) and infrared spectroscopy.

[5] = dose 100, in PEG400:water by oral gavage 10 mL/kg
[6] = dose 200, in PEG400:water by oral gavage 10 mL/kg

Sequence of Kdr (P35968 20-1356): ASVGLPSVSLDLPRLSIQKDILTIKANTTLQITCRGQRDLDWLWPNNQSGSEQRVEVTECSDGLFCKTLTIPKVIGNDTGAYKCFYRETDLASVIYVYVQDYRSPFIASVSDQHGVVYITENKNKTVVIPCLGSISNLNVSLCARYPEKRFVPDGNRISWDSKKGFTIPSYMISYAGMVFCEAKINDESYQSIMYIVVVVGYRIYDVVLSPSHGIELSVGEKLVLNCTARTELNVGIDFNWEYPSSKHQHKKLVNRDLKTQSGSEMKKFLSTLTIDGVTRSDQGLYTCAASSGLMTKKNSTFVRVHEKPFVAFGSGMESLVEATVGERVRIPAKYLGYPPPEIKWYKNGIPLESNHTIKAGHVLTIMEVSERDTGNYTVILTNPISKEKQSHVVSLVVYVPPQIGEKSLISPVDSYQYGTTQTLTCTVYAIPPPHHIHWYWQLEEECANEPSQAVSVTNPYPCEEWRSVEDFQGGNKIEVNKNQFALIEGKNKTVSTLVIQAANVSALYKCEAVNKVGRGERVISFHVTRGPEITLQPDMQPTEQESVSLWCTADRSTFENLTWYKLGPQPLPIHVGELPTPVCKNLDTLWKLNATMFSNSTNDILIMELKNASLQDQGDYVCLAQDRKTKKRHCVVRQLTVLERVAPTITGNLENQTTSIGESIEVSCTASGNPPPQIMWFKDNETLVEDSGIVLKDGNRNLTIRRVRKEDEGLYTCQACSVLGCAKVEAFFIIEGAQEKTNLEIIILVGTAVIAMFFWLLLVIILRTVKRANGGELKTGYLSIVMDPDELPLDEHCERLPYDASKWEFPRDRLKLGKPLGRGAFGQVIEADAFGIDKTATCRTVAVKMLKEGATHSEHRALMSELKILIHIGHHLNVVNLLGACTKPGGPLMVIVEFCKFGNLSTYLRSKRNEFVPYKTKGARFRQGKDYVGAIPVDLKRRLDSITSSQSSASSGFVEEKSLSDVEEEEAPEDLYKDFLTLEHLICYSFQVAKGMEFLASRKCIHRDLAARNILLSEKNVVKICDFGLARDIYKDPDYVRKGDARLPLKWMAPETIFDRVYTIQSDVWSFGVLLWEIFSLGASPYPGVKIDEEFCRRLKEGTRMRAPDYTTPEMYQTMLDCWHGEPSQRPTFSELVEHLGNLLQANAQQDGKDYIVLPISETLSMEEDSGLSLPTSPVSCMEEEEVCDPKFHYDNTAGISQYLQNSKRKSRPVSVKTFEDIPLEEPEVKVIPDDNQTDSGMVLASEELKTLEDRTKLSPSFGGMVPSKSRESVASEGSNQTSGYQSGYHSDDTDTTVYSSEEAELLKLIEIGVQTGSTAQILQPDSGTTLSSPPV
Sequence of C-Raf (P04049 whole entry): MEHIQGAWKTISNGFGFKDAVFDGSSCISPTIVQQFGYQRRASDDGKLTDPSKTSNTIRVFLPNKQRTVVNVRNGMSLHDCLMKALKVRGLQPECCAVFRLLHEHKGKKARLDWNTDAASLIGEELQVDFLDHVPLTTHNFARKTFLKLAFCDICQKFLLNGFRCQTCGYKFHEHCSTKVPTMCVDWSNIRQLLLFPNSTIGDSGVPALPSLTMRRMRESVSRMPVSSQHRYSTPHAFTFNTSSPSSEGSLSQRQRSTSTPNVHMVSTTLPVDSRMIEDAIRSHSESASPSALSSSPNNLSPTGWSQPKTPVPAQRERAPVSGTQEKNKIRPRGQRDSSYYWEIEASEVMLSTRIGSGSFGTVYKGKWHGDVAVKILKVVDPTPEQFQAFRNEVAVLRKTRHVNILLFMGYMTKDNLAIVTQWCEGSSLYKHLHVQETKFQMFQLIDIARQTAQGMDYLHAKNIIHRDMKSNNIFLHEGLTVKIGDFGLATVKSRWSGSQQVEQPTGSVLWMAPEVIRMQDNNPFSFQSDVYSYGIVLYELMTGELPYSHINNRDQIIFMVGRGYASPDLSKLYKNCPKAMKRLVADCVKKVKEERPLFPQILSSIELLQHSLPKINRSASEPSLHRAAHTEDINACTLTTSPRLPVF
Sequence of PI3Kγ (P48736 whole entry): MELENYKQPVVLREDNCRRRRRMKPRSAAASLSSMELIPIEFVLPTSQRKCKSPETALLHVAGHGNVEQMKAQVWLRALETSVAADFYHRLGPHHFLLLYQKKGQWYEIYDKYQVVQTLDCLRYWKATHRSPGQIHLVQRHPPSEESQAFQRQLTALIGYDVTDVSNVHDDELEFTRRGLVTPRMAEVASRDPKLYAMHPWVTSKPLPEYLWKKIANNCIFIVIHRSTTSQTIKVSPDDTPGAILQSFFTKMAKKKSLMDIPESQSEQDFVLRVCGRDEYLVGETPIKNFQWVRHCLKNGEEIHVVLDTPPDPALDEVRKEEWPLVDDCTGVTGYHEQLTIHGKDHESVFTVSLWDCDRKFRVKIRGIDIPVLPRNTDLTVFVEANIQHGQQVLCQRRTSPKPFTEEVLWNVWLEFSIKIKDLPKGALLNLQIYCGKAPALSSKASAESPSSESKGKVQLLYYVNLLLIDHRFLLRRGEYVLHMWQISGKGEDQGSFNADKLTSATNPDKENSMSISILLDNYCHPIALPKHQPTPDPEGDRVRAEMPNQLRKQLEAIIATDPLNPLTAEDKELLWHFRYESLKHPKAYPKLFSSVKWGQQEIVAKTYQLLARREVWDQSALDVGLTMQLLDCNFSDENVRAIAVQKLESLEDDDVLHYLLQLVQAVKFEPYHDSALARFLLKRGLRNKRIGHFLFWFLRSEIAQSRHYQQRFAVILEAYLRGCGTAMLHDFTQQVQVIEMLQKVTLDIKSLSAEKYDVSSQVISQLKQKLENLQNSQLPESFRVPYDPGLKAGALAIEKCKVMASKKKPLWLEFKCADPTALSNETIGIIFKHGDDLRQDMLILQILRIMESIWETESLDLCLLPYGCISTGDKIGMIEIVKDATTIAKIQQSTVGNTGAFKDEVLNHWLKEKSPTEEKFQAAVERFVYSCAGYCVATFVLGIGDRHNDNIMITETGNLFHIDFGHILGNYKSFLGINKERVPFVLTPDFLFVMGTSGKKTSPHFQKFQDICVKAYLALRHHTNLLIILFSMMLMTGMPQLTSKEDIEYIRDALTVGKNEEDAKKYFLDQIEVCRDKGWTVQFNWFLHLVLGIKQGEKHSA
Sequence of B-Raf V600E (P15056 whole entry V600E): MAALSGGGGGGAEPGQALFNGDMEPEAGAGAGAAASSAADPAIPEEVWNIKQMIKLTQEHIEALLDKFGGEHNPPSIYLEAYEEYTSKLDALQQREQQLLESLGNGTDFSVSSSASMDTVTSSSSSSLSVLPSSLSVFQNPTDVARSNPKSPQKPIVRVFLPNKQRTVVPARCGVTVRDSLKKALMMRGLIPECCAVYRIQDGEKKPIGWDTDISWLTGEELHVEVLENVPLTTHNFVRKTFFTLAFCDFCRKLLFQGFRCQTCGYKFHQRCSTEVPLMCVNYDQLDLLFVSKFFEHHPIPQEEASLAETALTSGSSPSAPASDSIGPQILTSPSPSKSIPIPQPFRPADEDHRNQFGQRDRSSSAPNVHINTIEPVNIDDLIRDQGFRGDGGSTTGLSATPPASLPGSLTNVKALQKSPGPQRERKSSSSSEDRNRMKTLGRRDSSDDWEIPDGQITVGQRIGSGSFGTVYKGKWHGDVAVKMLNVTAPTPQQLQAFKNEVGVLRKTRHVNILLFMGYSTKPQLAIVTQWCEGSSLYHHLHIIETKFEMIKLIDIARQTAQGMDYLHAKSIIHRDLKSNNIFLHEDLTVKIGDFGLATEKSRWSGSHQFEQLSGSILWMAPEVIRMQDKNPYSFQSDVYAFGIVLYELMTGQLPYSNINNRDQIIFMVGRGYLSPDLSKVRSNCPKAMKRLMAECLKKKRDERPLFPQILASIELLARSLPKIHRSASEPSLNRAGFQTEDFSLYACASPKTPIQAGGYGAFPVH
Sequence of MAP4K4 (O95819 whole entry): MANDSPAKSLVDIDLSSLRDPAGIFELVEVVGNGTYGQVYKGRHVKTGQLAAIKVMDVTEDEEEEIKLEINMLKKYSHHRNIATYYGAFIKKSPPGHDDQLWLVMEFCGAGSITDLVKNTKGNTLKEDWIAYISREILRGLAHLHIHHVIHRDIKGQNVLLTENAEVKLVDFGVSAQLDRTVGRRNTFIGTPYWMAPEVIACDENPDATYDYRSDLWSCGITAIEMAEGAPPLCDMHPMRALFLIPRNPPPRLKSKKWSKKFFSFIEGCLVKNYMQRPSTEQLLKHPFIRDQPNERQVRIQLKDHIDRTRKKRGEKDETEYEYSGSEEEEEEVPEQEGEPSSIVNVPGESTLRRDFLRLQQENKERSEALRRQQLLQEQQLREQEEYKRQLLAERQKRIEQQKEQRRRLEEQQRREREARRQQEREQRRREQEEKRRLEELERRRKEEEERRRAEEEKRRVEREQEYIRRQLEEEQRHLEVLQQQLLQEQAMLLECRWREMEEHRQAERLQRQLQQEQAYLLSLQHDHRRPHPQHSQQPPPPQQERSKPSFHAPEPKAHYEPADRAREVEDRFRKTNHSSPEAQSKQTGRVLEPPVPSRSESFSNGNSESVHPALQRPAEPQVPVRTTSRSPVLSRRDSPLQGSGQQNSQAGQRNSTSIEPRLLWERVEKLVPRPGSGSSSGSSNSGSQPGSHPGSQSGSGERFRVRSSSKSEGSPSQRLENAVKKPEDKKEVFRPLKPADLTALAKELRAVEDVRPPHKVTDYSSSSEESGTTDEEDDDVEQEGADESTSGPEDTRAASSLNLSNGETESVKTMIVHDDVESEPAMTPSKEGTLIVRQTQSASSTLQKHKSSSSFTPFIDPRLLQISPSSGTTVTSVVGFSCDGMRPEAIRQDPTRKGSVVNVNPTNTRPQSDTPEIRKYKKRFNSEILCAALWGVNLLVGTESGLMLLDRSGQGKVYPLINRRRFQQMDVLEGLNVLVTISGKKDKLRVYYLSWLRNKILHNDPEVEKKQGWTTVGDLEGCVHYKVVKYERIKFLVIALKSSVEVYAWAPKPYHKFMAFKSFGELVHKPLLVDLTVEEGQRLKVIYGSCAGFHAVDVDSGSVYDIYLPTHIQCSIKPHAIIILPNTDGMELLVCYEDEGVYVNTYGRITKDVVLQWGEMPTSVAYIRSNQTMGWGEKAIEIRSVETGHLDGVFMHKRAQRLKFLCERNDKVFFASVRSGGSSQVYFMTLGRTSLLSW

Row | AUC∞/dose [1, 5] | Cmax/dose [1, 5] | IC50 (B-Raf) [µM] | IC50 (C-Raf) [µM] | IC50 (MAP4K4) [µM] | IC50 (Src) [µM] | IC50 (Kdr) [µM] | IC50 (PI3Kα) [µM] | IC50 (B-Raf V600E) [µM] | IC50 (PI3Kγ) [µM] | IC50 (Kit) [µM] | SMILES | further results
1 | 1,970 | 106 (ng/mL)/(mg/kg) |  |  |  |  |  |  |  |  |  | CCCS(=O)(=O)Nc1ccc(F)c(C(=O)c2c[nH]c3ncc(-c4cnc(OC)nc4)cc23)c1F [P-1496 free base, Propane-1-sulfonic acid {2,4-difluoro-3-[5-(2-methoxy-pyrimidin-5-yl)-1H-pyrrolo[2,3-b]pyridine-3-carbonyl]-phenyl}-amide] | 
2 |  |  | ≤ 10 | ≤ 10 | ≤ 10 | ≤ 10 | ≤ 10 | ≤ 10 | ≤ 10 | ≤ 10 | ≤ 10 | CCCS(=O)(=O)Nc1ccc(F)c(C(=O)c2c[nH]c3ncc(-c4ccc(C(N)=O)nc4)cc23)c1F [P-2220, 5-{3-[2,6-Difluoro-3-(propane-1-sulfonylamino)-benzoyl]-1H-pyrrolo[2,3-b]pyridin-5-yl}-pyridine-2-carboxylic acid amide] | IC50 (A-Raf): ≤ 10 µM
3 | 3,620 | 159 (ng/mL)/(mg/kg) |  |  |  |  |  |  |  |  |  | CCCS(=O)(=O)Nc1ccc(F)c(C(=O)c2c[nH]c3ncc(-c4cnc(OC)nc4)cc23)c1F [P-1496 arginine complex, propane-1-sulfonic acid {2,4-difluoro-3-[5-(2-methoxy-pyrimidin-5-yl)-1H-pyrrolo[2,3-b]pyridine-3-carbonyl]-phenyl}-amide] | biopharmaceutical properties, comparison in words [1]: improved biopharmaceutical properties
4 |  |  | ≤ 10 | ≤ 10 | ≤ 10 | ≤ 10 | ≤ 10 |  | ≤ 10 |  | ≤ 10 | Cn1cc(-c2cnc3[nH]cc(C(=O)c4cc(NS(=O)(=O)c5cccc(F)c5)ccc4F)c3c2)cn1 [P-2105, 3-Fluoro-N-{4-fluoro-3-[5-(1-methyl-1H-pyrazol-4-yl)-1H-pyrrolo[2,3-b]pyridine-3-carbonyl]-phenyl}-benzenesulfonamide] | IC50 (TrkA): ≤ 10 µM; IC50 (TEC): ≤ 10 µM; IC50 (Flt1): ≤ 10 µM; IC50 (Fms): ≤ 10 µM; IC50 (Btk): ≤ 10 µM
5 |  |  |  |  |  | ≤ 10 | ≤ 10 | ≤ 10 | ≤ 10 |  | ≤ 10 | CCCS(=O)(=O)Nc1ccc(F)c(C(=O)c2c[nH]c3ncc(-c4cccc(S(=O)(=O)NC)c4)cc23)c1F [P-2170, 3-{3-[2,6-Difluoro-3-(propane-1-sulfonylamino)-benzoyl]-1H-pyrrolo[2,3-b]pyridin-5-yl}-N-methyl-benzenesulfonamide] | IC50 (PI3Kδ): ≤ 10 µM; IC50 (Fms): ≤ 10 µM
6 |  |  |  |  |  |  |  |  |  |  |  | CCCS(=O)(=O)Nc1ccc(F)c(C(=O)c2c[nH]c3ncc(-c4ccc(Cl)cc4)cc23)c1F [arginine complex of P-1167, propane-1-sulfonic acid {3-[5-(4-chloro-phenyl)-1H-pyrrolo[2,3-b]pyridine-3-carbonyl]-2,4-difluoro-phenyl}-amide] | UV absorbance in SIF (dissolution) [2]: substantially higher absorbance in SIF than the free base; time of maximum absorbance in SGF [3]: approximately 200 minutes; maximum UV absorbance in SGF (dissolution) ([3]; versus form 2 polymorph free base): substantially greater than the free base
7 | 3,210 | 283 (ng/mL)/(mg/kg) |  |  |  |  |  |  |  |  |  | CCCS(=O)(=O)Nc1ccc(F)c(C(=O)c2c[nH]c3ncc(-c4cnc(OC)nc4)cc23)c1F [P-1496 lysine complex, propane-1-sulfonic acid {2,4-difluoro-3-[5-(2-methoxy-pyrimidin-5-yl)-1H-pyrrolo[2,3-b]pyridine-3-carbonyl]-phenyl}-amide] | AUC∞/dose [1, 6]: 2,750; Cmax/dose [1, 6]: 155 (ng/mL)/(mg/kg); biopharmaceutical properties, comparison in words [1]: improved biopharmaceutical properties
8 |  |  |  |  |  |  |  |  |  |  |  | CCCS(=O)(=O)Nc1ccc(F)c(C(=O)c2c[nH]c3ncc(-c4ccc(Cl)cc4)cc23)c1F [P-1167 Form 2, Propane-1-sulfonic acid {3-[5-(4-chloro-phenyl)-1H-pyrrolo[2,3-b]pyridine-3-carbonyl]-2,4-difluoro-phenyl}-amide] | relative stability of polymorphic forms [4]: more stable polymorph
9 |  |  | ≤ 10 |  |  |  | ≤ 10 | ≤ 10 | ≤ 10 | ≤ 10 |  | CCCS(=O)(=O)Nc1ccc(F)c(C(=O)c2c[nH]c3ncc(-c4cncc(S(C)(=O)=O)c4)cc23)c1F [P-2188] | IC50 (PI3Kδ): ≤ 10 µM
10 |  |  | ≤ 10 | ≤ 10 | ≤ 10 |  |  | ≤ 10 | ≤ 10 | ≤ 10 |  | CCCS(=O)(=O)Nc1cccc(C(=O)c2c[nH]c3ncc(-c4cnc(OC)nc4)cc23)c1F [P-2407, Propane-1-sulfonic acid {2-fluoro-3-[5-(2-methoxy-pyrimidin-5-yl)-1H-pyrrolo[2,3-b]pyridine-3-carbonyl]-phenyl}-amide] | IC50 (TrkA): ≤ 10 µM; IC50 (A-Raf): ≤ 10 µM

— patent US20120122860A1, “SOLID FORMS OF SULFONAMIDES AND AMINO ACIDS” (Plexxikon, Inc., priority 2009, published 2012)
